According to ChEMBL document CHEMBL4312016, “Amide-sulfamide modulators as effective anti-tumor metastatic agents targeting CXCR4/CXCL12 axis” (Eur J Med Chem, 2020):
Active and inactive are the calls of the source. No cut-off for these calls is given here.

How the values were obtained:
[1] = biological target: C-X-C chemokine receptor type 4 (Homo sapiens) (UniProt P61073); assay: Competitive binding affinity at CXCR4 in human MDA-MB-231 cells preincubated for 10 mins followed by biotinylated TN14003 addition further incubated for 30 mins by fluorescence microscopy; format: cell-based
[2] = biological target: C-X-C chemokine receptor type 4 (Homo sapiens) (UniProt P61073); assay: Inhibition of CXCR4-mediated chemotaxis in human MDA-MB-231 cells assessed as reduction in CXCL12alpha-induced cell invasion after 22 hrs by hematoxylin/eosin dye-based matrigel assay relative to control; parameters: concentration or dose not given beside the values; settings: concentration not given here
MDA-MB-231 [3] = assay: Inhibition of cell migration in human MDA-MB-231 cells at 10 uM incubated for 24 hrs by inverted microscopy; format: functional, cell-based
MDA-MB-231 [4] = assay: Inhibition of fibronectin-induced cell adhesion in human MDA-MB-231 cells at 1 to 10 uM incubated for 6 hrs by inverted microscopy; format: functional, cell-based
[5] = biological target: C-X-C chemokine receptor type 4 (Homo sapiens) (UniProt P61073); assay: Inhibition of CXCR4-mediated chemotaxis in human MDA-MB-231 cells assessed as reduction in CXCL12alpha-induced cell invasion after 22 hrs by hematoxylin/eosin dye-based matrigel assay
HUVEC = assay: Antiangiogenic activity in HUVEC assessed as inhibition of tube formation at 10 uM incubated for 4 hrs by matrigel assay; format: functional, cell-based; settings: Homo sapiens
MDA-MB-231 [6] = assay: Inhibition of metastasis in human MDA-MB-231 cells assessed as decrease in p-4E-BP1 expression at 10 uM incubated for 24 hrs by Western blot analysis; format: functional, cell-based
MDA-MB-231 [7] = assay: Inhibition of cell migration in human MDA-MB-231 cells incubated for 24 hrs by inverted microscopy; format: functional, cell-based
MDA-MB-231 [8] = assay: Antimetastatic activity against human MDA-MB-231 cells xenografted in BALB/c mouse assessed as reduction in lung metastasis at 20 mg/kg, ip administered twice a day for 2 weeks and measured on day 14 relative to control; format: functional; settings: MDA-MB-231, ip, 336 h
MDA-MB-231 [9] = assay: Inhibition of metastasis in human MDA-MB-231 cells assessed as decrease in p-mTOR expression at 10 uM incubated for 24 hrs by Western blot analysis; format: functional, cell-based
[10] = Toxicity in BALB/c mouse xenografted with human MDA-MB-231 cells assessed as effect on body weight at 20 mg/kg, po administered twice a day for 2 weeks; format: organism-based; settings: in vivo, 336 h
MDA-MB-231 [11] = assay: Antimetastatic activity against human MDA-MB-231 cells xenografted in BALB/c mouse assessed as reduction in lung metastatic nodules at 20 mg/kg, ip administered twice a day for 2 weeks and measured on day 14; format: functional, organism-based
MDA-MB-231 [12] = assay: Inhibition of metastasis in human MDA-MB-231 cells assessed as decrease in P70S6K expression at 10 uM incubated for 24 hrs by Western blot analysis; format: functional, cell-based

Chain of C-X-C chemokine receptor type 4 (Homo sapiens) (P61073 whole entry): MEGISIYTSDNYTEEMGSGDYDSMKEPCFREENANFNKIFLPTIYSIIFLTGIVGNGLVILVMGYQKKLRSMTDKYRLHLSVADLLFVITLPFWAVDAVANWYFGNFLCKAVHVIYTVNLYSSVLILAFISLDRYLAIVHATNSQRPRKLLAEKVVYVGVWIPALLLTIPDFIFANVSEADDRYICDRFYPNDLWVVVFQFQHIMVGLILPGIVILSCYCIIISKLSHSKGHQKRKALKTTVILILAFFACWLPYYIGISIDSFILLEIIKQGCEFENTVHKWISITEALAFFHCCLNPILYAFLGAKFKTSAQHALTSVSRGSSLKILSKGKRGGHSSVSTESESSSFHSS

Row | EC [1] | Compound | other results
1 | 1000 nM | COc1ccccc1C(=O)NCc1ccc(CNS(=O)(=O)c2cccc(Cl)c2)cc1 | –
2 | 100 nM | COc1ccccc1C(=O)NCc1ccc(CNS(=O)(=O)c2ccc(F)cc2)cc1 | –
3 | 100 nM | COc1ccccc1C(=O)NCc1ccc(CNS(=O)(=O)c2ccc([N+](=O)[O-])cc2)cc1 | –
4 | 1 nM | Cc1ccccc1C(=O)NCc1ccc(CNS(=O)(=O)c2ccc(Cl)cc2)cc1 | –
5 | > 1000 nM | COc1ccccc1C(=O)NCc1ccc(CNS(=O)(=O)c2cccc3ccccc23)cc1 | –
6 | 1000 nM | COc1ccccc1C(=O)NCc1ccc(CNS(=O)(=O)c2cccc(F)c2)cc1 | –
7 | 1000 nM | Cc1cccc(S(=O)(=O)NCc2ccc(CNC(=O)c3ccccc3C)cc2)c1 | –
8 | 100 nM | O=C(NCc1ccc(CNS(=O)(=O)c2ccc(F)cc2)cc1)c1cccnc1 | inhibition (MDA-MB-231 [6]): Active; inhibition (MDA-MB-231 [7]): Dose-dependent effect; inhibition [2]: 92%; inhibition in vivo at 20 mg/kg (MDA-MB-231 [8]): 43%; inhibition (MDA-MB-231 [3]): Active; inhibition (MDA-MB-231 [9]): Active; inhibition (HUVEC): Active; inhibition (MDA-MB-231 [4]): Active; Activity [10]: Non-Toxic; Activity (MDA-MB-231 [11]): Active; inhibition (MDA-MB-231 [12]): Active
9 | 100 nM | COc1ccccc1C(=O)NCc1ccc(CNS(=O)(=O)c2ccccc2Cl)cc1 | inhibition [2]: 99%; inhibition (MDA-MB-231 [3]): Active; inhibition (MDA-MB-231 [4]): Active
10 | 1000 nM | COc1ccccc1C(=O)NCc1ccc(CNS(=O)(=O)c2ccc(Cl)cc2)cc1 | –
11 | 1000 nM | COc1ccccc1C(=O)NCc1ccc(CNS(=O)(=O)c2ccccc2C)cc1 | –
12 | 100 nM | Cc1ccccc1C(=O)NCc1ccc(CNS(=O)(=O)c2cccc(F)c2)cc1 | –
13 | 1000 nM | COc1ccccc1C(=O)NCc1ccc(CNS(=O)(=O)c2cccc(C)c2)cc1 | –
14 | 10 nM | Cc1ccccc1C(=O)NCc1ccc(CNS(=O)(=O)c2ccc(F)cc2)cc1 | –
15 | 1 nM | COc1ccccc1C(=O)NCc1ccc(CNS(=O)(=O)c2ccccc2F)cc1 | inhibition [5]: inactive
16 | 100 nM | Cc1ccccc1C(=O)NCc1ccc(CNS(=O)(=O)c2ccc([N+](=O)[O-])cc2)cc1 | –

The remaining lines, values behind:

Row | Compound | EC [1] | other results
17 | Cc1ccccc1C(=O)NCc1ccc(CNS(=O)(=O)c2cccc(Cl)c2)cc1 | 100 nM | inhibition [2]: 99%; inhibition (MDA-MB-231 [3]): Active; inhibition (MDA-MB-231 [4]): Active
18 | O=C(NCc1ccc(CNS(=O)(=O)c2ccc([N+](=O)[O-])cc2)cc1)c1cccnc1 | 100 nM | inhibition [5]: inactive
19 | Cc1cccc(S(=O)(=O)NCc2ccc(CNC(=O)c3cccnc3)cc2)c1 | 10 nM | –
20 | O=C(NCc1ccc(CNS(=O)(=O)c2cccc3ccccc23)cc1)c1cccnc1 | 1000 nM | –
21 | O=C(NCc1ccc(CNS(=O)(=O)c2ccccc2F)cc1)c1cccnc1 | 100 nM | –
22 | Cc1ccccc1C(=O)NCc1ccc(CNS(=O)(=O)c2ccccc2F)cc1 | 1000 nM | –
23 | O=C(NCc1ccc(CNS(=O)(=O)c2ccc(Cl)cc2)cc1)c1cccnc1 | 1000 nM | –
24 | O=C(NCc1ccc(CNS(=O)(=O)c2cccc(F)c2)cc1)c1cccnc1 | 1000 nM | –
25 | O=C(NCc1ccc(CNS(=O)(=O)c2ccccc2Cl)cc1)c1cccnc1 | 100 nM | inhibition [2]: 96%; inhibition (MDA-MB-231 [3]): Active; inhibition (HUVEC): Active; inhibition (MDA-MB-231 [4]): Active
26 | Cc1ccccc1C(=O)NCc1ccc(CNS(=O)(=O)c2ccccc2C)cc1 | 10 nM | inhibition [2]: 99%; inhibition (MDA-MB-231 [3]): Active; inhibition (HUVEC): Active; inhibition (MDA-MB-231 [4]): Active
27 | Cc1ccccc1S(=O)(=O)NCc1ccc(CNC(=O)c2cccnc2)cc1 | 1000 nM | –
28 | O=C(NCc1ccc(CNS(=O)(=O)c2cccc(Cl)c2)cc1)c1cccnc1 | 100 nM | –
29 | Cc1ccccc1C(=O)NCc1ccc(CNS(=O)(=O)c2cccc3ccccc23)cc1 | 100 nM | –
30 | Cc1ccccc1C(=O)NCc1ccc(CNS(=O)(=O)c2ccccc2Cl)cc1 | 1000 nM | –
